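How tested: cells in 96-well plates exposed to compound for 48 hours at five concentrations. GI50 = concentration required for 50% inhibition of growth.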 Active and inactive are the calls of the source. No stated cut-off is given here; in the data, active = GI50 up to about 1.1 µM and inactive = higher.
How the values were obtained:
Assay in all cases: inhibition of tumour cell growth, NCI panel, 48 h
A498 = tested on: A498
HCT-15 = tested on: HCT-15
HOP-18 = tested on: HOP-18
HT-29 = tested on: HT-29
KM-20L2 = tested on: KM-20L2
KM12 = tested on: KM12
M19-MEL = tested on: M19-MEL
NCI-H226 = tested on: NCI-H226
NCI-H460 = tested on: NCI-H460
OVCAR-8 = tested on: OVCAR-8
RPMI-8226 = tested on: RPMI-8226
SF-295 = tested on: SF-295
SK-MEL-5 = tested on: SK-MEL-5
SK-OV-3 = tested on: SK-OV-3
TK-10 = tested on: TK-10
HL-60 = tested on: HL-60
NCI-H522 = tested on: NCI-H522
SR = tested on: SR

Measured: GI50

CCOCN1COCN(C)C1=O
> 100 µM: HCT-15
inactive: A498 > 100 µM | HOP-18 > 100 µM | HT-29 > 100 µM | KM-20L2 > 100 µM | KM12 > 100 µM | M19-MEL > 100 µM | NCI-H226 > 100 µM | NCI-H460 > 100 µM | OVCAR-8 > 100 µM | RPMI-8226 > 100 µM | SF-295 > 100 µM | SK-MEL-5 > 100 µM | SK-OV-3 > 100 µM | TK-10 > 100 µM

Cc1ccc2c(CC(=O)O)cc(=O)oc2c1
> 100 µM: HCT-15
inactive: A498 > 100 µM | HL-60 > 100 µM | HOP-18 > 100 µM | HT-29 > 100 µM | KM-20L2 > 100 µM | KM12 > 100 µM | M19-MEL > 100 µM | NCI-H226 > 100 µM | NCI-H460 > 100 µM | NCI-H522 > 100 µM | OVCAR-8 > 100 µM | RPMI-8226 > 100 µM | SF-295 > 100 µM | SK-MEL-5 > 100 µM | SK-OV-3 > 100 µM | TK-10 > 100 µM

Oc1ccc(I)c2cccnc12
4.19 µM: HCT-15
inactive: A498 32 µM | HL-60 2.12 µM | HOP-18 8.07 µM | HT-29 38.2 µM | KM-20L2 50.4 µM | KM12 14.8 µM | M19-MEL 14.4 µM | NCI-H226 15.6 µM | NCI-H460 3.95 µM | NCI-H522 1.94 µM | OVCAR-8 3.66 µM | RPMI-8226 2.89 µM | SF-295 3.48 µM | SK-OV-3 5.07 µM | SR 3.35 µM | TK-10 37.2 µM

CC1CCC[P+](Cc2ccccc2)(c2ccccc2)CC1 (stereo not given)
> 100 µM: HCT-15
inactive: A498 > 100 µM | HL-60 14.8 µM | KM-20L2 50.6 µM | M19-MEL 27.6 µM | NCI-H460 79.6 µM | OVCAR-8 59.8 µM | RPMI-8226 7.23 µM | SK-MEL-5 14.5 µM | SK-OV-3 > 100 µM | TK-10 > 100 µM
active: HOP-18 0.078 µM

COc1cc(OC)c(OC)cc1/C=N/NC(=O)N/N=C/c1cc(OC)c(OC)cc1OC
> 100 µM: HCT-15
inactive: A498 > 100 µM | HOP-18 > 100 µM | HT-29 > 100 µM | KM-20L2 > 100 µM | KM12 > 100 µM | M19-MEL > 100 µM | NCI-H226 > 100 µM | NCI-H460 > 100 µM | NCI-H522 17.5 µM | OVCAR-8 91 µM | RPMI-8226 > 100 µM | SF-295 > 100 µM | SK-MEL-5 > 100 µM | SK-OV-3 > 100 µM | TK-10 > 100 µM

Cc1ccc(NC(=O)C(=O)Cc2cc[n+]([O-])cc2)cc1
inactive: A498 > 100 µM | HL-60 > 100 µM | HOP-18 > 100 µM | HT-29 > 100 µM | KM-20L2 > 100 µM | KM12 > 100 µM | M19-MEL > 100 µM | NCI-H226 > 100 µM | NCI-H460 > 100 µM | NCI-H522 > 100 µM | OVCAR-8 > 100 µM | RPMI-8226 > 100 µM | SF-295 > 100 µM | SK-MEL-5 > 100 µM | SK-OV-3 > 100 µM | SR > 100 µM | TK-10 > 100 µM
> 100 µM: HCT-15

Cc1c2ccccc2c(C)c2c3c(ccc12)C(=O)C=CC3=O
19.1 µM: HCT-15
inactive: A498 > 100 µM | HL-60 2.15 µM | HOP-18 23.8 µM | HT-29 28 µM | KM-20L2 41.9 µM | KM12 27.3 µM | M19-MEL 17.1 µM | NCI-H226 > 89.5 µM | NCI-H460 > 67.6 µM | NCI-H522 13.6 µM | OVCAR-8 14.9 µM | RPMI-8226 29.9 µM | SF-295 24.7 µM | SK-MEL-5 37.7 µM | SK-OV-3 > 60.5 µM | SR 8.36 µM | TK-10 19.2 µM

COP(=O)(CC(=O)C1OC(C)(C)OC1C(O)COCc1ccccc1)OC (stereo not given)
inactive: A498 > 100 µM | HL-60 > 100 µM | HOP-18 > 100 µM | HT-29 > 100 µM | KM-20L2 > 100 µM | KM12 > 100 µM | M19-MEL > 100 µM | NCI-H226 > 100 µM | NCI-H460 > 100 µM | OVCAR-8 > 100 µM | RPMI-8226 > 100 µM | SF-295 > 100 µM | SK-MEL-5 46.2 µM | SR > 100 µM | TK-10 > 100 µM
> 100 µM: HCT-15

C=CC/N=C1/N=C(CC(=O)OCC)CS1
inactive: A498 > 100 µM | HL-60 > 100 µM | HOP-18 > 100 µM | HT-29 > 100 µM | KM-20L2 > 100 µM | KM12 > 100 µM | M19-MEL > 100 µM | NCI-H226 > 100 µM | NCI-H460 > 100 µM | NCI-H522 > 100 µM | OVCAR-8 > 100 µM | SF-295 > 100 µM | SK-MEL-5 > 100 µM | SK-OV-3 > 100 µM | TK-10 > 100 µM
> 100 µM: HCT-15
